In patent US7928060B2, “Amylin family polypeptide-6 (AFP-6) analogs and methods of making and using them” (Amylin Pharmaceuticals, Inc., priority 2004, dated 2011):

Experiments:
Sprague-Dawley rats = assay: 1-week continuous subcutaneous infusion in high fat-fed rats: food intake and body weight; type: in vivo, rat; conditions: 75 nmol/kg/day
Source text: Individually housed male Sprague-Dawley® rats (beginning weight=310 g; 12-h light/dark cycle) were maintained on a high fat (HF) diet (Research Diet 58% kcal from fat). Rats were fattened for 34 days. At the end of the fattening period, 7-day osmotic pumps (Durect Corp.) were implanted interscapularly under anesthesia (body weight at time of implant=403 g). The rats received pumps delivering compound or vehicle (50% DMSO). The following compounds were examined at a 75 nmol/kg/day dose: AFP-6, and an AFP-6 analog SEQ ID NO:32. Food intake and body weight measurements were obtained on day 2 and day 7. Group differences were analyzed using analysis of variance (ANOVA) and Fisher's Least-Significant Difference test.

[1] = plasma ionized calcium in rats; type: in vivo, rat; conditions: subcutaneous, samples of Example 4
Experimental: Using the samples obtained from Example 4, ionized calcium was measured in plasma samples obtained from gastric emptying experiments described above, using an ion selective electrode, Ciba/Corning 634 Ca/pH analyzer (Ciba/Corning, Inc., Medfield, Mass.).

rats = assay: telemetry of cardiovascular parameters in conscious rats; type: in vivo, rat; conditions: 10 nmol/kg intravenous
Source text: Telemetry allows for real-time hemodynamic readings including arterial pressure, heart rate, arterial dP/dt, ECG (with waveform intervals) and core temperature via an implanted radio transmitter in conscious, non-anesthetized, unrestrained rats. […] Remote intravenous dosing is achieved through in-dwelling vascular access ports.

adrenomedullin receptor = conditions: bovine studies; cited from earlier work

Compound: CSCC[C@H](NC(=O)[C@H](CC(C)C)NC(=O)[C@H](CCC(N)=O)NC(=O)[C@H](Cc1c[nH]c2ccccc12)NC(=O)[C@H](CC(C)C)NC(=O)[C@H](CCCNC(=N)N)NC(=O)[C@H](Cc1c[nH]cn1)NC(=O)[C@H](CO)NC(=O)[C@H](CC(C)C)NC(=O)[C@H](CC(N)=O)NC(=O)[C@H](CCC(N)=O)NC(=O)[C@@H](NC(=O)[C@H](CCC(N)=O)NC(=O)[C@@H]1CSSC[C@H](NC(=O)CNC(=O)[C@@H](NC(=O)[C@H](CCCNC(=N)N)NC(=O)[C@H](CC(C)C)NC(=O)[C@H](CC(C)C)NC(=O)[C@H](CCC(N)=O)NC(=O)[C@H](C)NC(=O)[C@H](CCC(N)=O)NC(=O)[C@@H](N)[C@@H](C)O)C(C)C)C(=O)N[C@@H](C(C)C)C(=O)N[C@@H](CC(C)C)C(=O)NCC(=O)N[C@@H]([C@@H](C)O)C(=O)N1)C(C)C)C(=O)NCC(=O)N1CCC[C@H]1C(=O)N[C@@H](C)C(=O)NCC(=O)N[C@@H](CCCNC(=N)N)C(=O)N[C@@H](CCC(N)=O)C(=O)N[C@@H](CC(=O)O)C(=O)N[C@@H](CO)C(=O)N[C@@H](C)C(=O)N1CCC[C@H]1C(=O)N[C@H](C(=O)N[C@@H](CC(=O)O)C(=O)N1CCC[C@H]1C(=O)N[C@@H](CO)C(=O)N[C@@H](CO)C(=O)N1CCC[C@H]1C(=O)N[C@@H](Cc1c[nH]cn1)C(=O)N[C@@H](CO)C(=O)N[C@@H](Cc1ccc(O)cc1)C(N)=O)C(C)C [SEQ ID NO: 1]
- body weight gain compared to Vehicle (Sprague-Dawley rats; Day 7): significantly less body weight gain than Vehicle
- percent body weight loss (vehicle-corrected) (Sprague-Dawley rats; Day 7): 3.2%
- food intake compared to Vehicle (Sprague-Dawley rats; after 2 days of treatment): significantly reduced food intake
- ED50, decrease of plasma ionized calcium [1]: 0.025 mg/kg
- profile over all three cardiovascular parameters (rats): profile more amylin-like than adrenomedullin like
- binding at the adrenomedullin receptor (adrenomedullin receptor): 1 to 5 nM
